The target in assay [1] is T1, isolated nNOS from rat cerebella (Rattus norvegicus, UniProt P29476). Put plainly: Arginine assay according to the invention (HTS NOS assay, cation exchanger filter MTP).
The target of assay [2] is T1, isolated nNOS from rat cerebella. Briefly: Citrulline assay according to Bredt and Snyder (1990), separation by column chromatography. In kind it is biochemical. The conditions noted are these: [3H]arginine 50 nM. The source says:
On completion of the reaction the enzyme mixtures are passed over separate cation exchange columns. Elution of the [^3H]L-citrulline and determination of the eluates then takes place on a β-counter. The disadvantage of this method is that column chromatography has to take place separately for each enzyme mixture (e.g. 96 chromatography columns are needed per 96 well microtiter plate).
The precipitate is discarded.
The separation was effected by means of column chromatography.

The inhibition is how much of the control response was suppressed. In the case of `O=[N+]([O-])c1cccc2cn[nH]c12` [7-Nitroindazole, 7-nitroindazole], the inhibition at 10 µM in assay [1] (read-out: NOS inhibition) is around 50%. The IC50 is the concentration needed to halve the response being measured. As to `FC(F)(F)c1ccccc1-n1ccnc1` [TRIM, 1-(2-trifluormethylphenyl)imidazole], the IC50 in assay [2] is above 100 µM; in assay [1] (read-out: IC50 value, Arginine assay according to the invention as in Example 4, [3H]arginine 50 nM, nNOS from rat cerebella, 96 well cation exchanger filter MTP), above 100 µM.

In the case of `C=CCC(=N)NCCC[C@H](N)C(=O)O` [Vinyl L-NIO, N5-(1-imino-3-butenyl)-L-ornithine], the results for the IC50 in assay [2] and in assay [1] were 5.57 µM and 5.02 µM, respectively.

Values taken from US7045307B2, “Method for measuring no synthase activity” (Gruenenthal GmbH, priority 2000, dated 2006).
